Tested on: 454973-116-R2-J3-PDC spheroids, viability, % test/control
Assay: Anticancer human tumor 454973-116-R2-J3-PDC patient-derived pancreatic carcinoma cell line growth inhibition [GQUAD]
Details: spheroids with HUVEC and MSC; for IC50: curve of first compound; for viability, T/C: stronger effect = lower value
Procedure, shortened: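 Tumor cells were grown as complex spheroids with HUVEC endothelial cells and mesenchymal stem cells as stroma. G-quadruplex stabilizers were combined with targeted agents over half-log dilutions from near the clinical Cmax, or from 10 microM.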

[1] = second compound 0.0316 µM, first compound 0.0316 µM
[2] = second compound 0.0316 µM, first compound 0.1 µM
[3] = second compound 0.0316 µM, first compound 0.316 µM
[4] = second compound 0.0316 µM, first compound 1 µM
[5] = second compound 0.0316 µM, first compound 3.16 µM
[6] = second compound 0.0316 µM, first compound 10 µM
[7] = second compound 0.1 µM, first compound 0.0316 µM
[8] = second compound 0.1 µM, first compound 0.1 µM
[9] = second compound 0.1 µM, first compound 0.316 µM
[10] = second compound 0.1 µM, first compound 1 µM
[11] = second compound 0.1 µM, first compound 3.16 µM
[12] = second compound 0.1 µM, first compound 10 µM
[13] = second compound 0.316 µM, first compound 0.0316 µM
[14] = second compound 0.316 µM, first compound 0.1 µM
[15] = second compound 0.316 µM, first compound 0.316 µM
[16] = second compound 0.316 µM, first compound 1 µM
[17] = second compound 0.316 µM, first compound 3.16 µM
[18] = second compound 0.316 µM, first compound 10 µM
[19] = second compound 1 µM, first compound 0.0316 µM
[20] = second compound 1 µM, first compound 0.1 µM
[21] = second compound 1 µM, first compound 0.316 µM
[22] = second compound 1 µM, first compound 1 µM
[23] = second compound 1 µM, first compound 3.16 µM
[24] = second compound 1 µM, first compound 10 µM
[25] = second compound 3.16 µM, first compound 0.0316 µM
[26] = second compound 3.16 µM, first compound 0.1 µM
[27] = second compound 3.16 µM, first compound 0.316 µM
[28] = second compound 3.16 µM, first compound 1 µM
[29] = second compound 3.16 µM, first compound 3.16 µM
[30] = second compound 3.16 µM, first compound 10 µM
[31] = second compound 10 µM, first compound 0.0316 µM
[32] = second compound 10 µM, first compound 0.1 µM
[33] = second compound 10 µM, first compound 0.316 µM
[34] = second compound 10 µM, first compound 1 µM
[35] = second compound 10 µM, first compound 3.16 µM
[36] = second compound 10 µM, first compound 10 µM
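Also: spheroids exposed to compounds for seven days.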
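For viability, T/C in this document: 100% = DMSO vehicle control viability.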

## C=CCn1c(=O)c2cnc(Nc3ccc(N4CCN(C)CC4)cc3)nc2n1-c1cccc(C(C)(C)O)n1 + Cc1cnc(CNC(=O)c2c(=O)c3ccc(N4CCCN(C)CC4)nc3n3c2sc2ccccc23)cn1
Second compound 0.0316 µM
  IC50: 190 nM
Second compound 0.1 µM
  IC50: 121 nM
Second compound 0.316 µM
  IC50: 110 nM
Second compound 1 µM
  IC50: 263 nM
Second compound 3.16 µM
  IC50: 186 nM
Second compound 10 µM
  IC50: < 31.6 nM
[1]
  viability, T/C: 98%
[2]
  viability, T/C: 78.8%
[3]
  viability, T/C: 27%
[4]
  viability, T/C: 11.7%
[5]
  viability, T/C: 6.73%
[6]
  viability, T/C: 10.2%
[7]
  viability, T/C: 76.5%
[8]
  viability, T/C: 53.6%
[9]
  viability, T/C: 29.8%
[10]
  viability, T/C: 12%
[11]
  viability, T/C: 8.47%
[12]
  viability, T/C: 8.54%
[13]
  viability, T/C: 57.6%
[14]
  viability, T/C: 49.7%
[15]
  viability, T/C: 37.2%
[16]
  viability, T/C: 18.1%
[17]
  viability, T/C: 9.06%
[18]
  viability, T/C: 9.69%
[19]
  viability, T/C: 60.9%
[20]
  viability, T/C: 59.2%
[21]
  viability, T/C: 48.2%
[22]
  viability, T/C: 22.4%
[23]
  viability, T/C: 13.7%
[24]
  viability, T/C: 13.6%
[25]
  viability, T/C: 58.3%
[26]
  viability, T/C: 63.1%
[27]
  viability, T/C: 40.8%
[28]
  viability, T/C: 23.9%
[29]
  viability, T/C: 18.2%
[30]
  viability, T/C: 21.9%
[31]
  viability, T/C: 0.34%
[32]
  viability, T/C: 20.9%
[33]
  viability, T/C: 23.4%
[34]
  viability, T/C: 0.26%
[35]
  viability, T/C: 0.3%
[36]
  viability, T/C: 0.38%

## CC1COCCN1c1cc(-c2ccnn2C)c2ccnc(-c3ccn[nH]3)c2n1 (stereo unspecified) + Cc1cnc(CNC(=O)c2c(=O)c3ccc(N4CCCN(C)CC4)nc3n3c2sc2ccccc23)cn1
Second compound 0.0316 µM
  IC50: 42.3 nM
Second compound 0.1 µM
  IC50: < 31.6 nM
Second compound 0.316 µM
  IC50: < 31.6 nM
Second compound 1 µM
  IC50: < 31.6 nM
Second compound 3.16 µM
  IC50: < 31.6 nM
Second compound 10 µM
  IC50: < 31.6 nM
[1]
  viability, T/C: 58.3%
[2]
  viability, T/C: 26.2%
[3]
  viability, T/C: 17.6%
[4]
  viability, T/C: 18.5%
[5]
  viability, T/C: 21.3%
[6]
  viability, T/C: 21.7%
[7]
  viability, T/C: 35.7%
[8]
  viability, T/C: 23.1%
[9]
  viability, T/C: 18.9%
[10]
  viability, T/C: 14.7%
[11]
  viability, T/C: 18.3%
[12]
  viability, T/C: 23.3%
[13]
  viability, T/C: 33.7%
[14]
  viability, T/C: 20%
[15]
  viability, T/C: 18.6%
[16]
  viability, T/C: 16.8%
[17]
  viability, T/C: 19.4%
[18]
  viability, T/C: 21.6%
[19]
  viability, T/C: 39.7%
[20]
  viability, T/C: 27.9%
[21]
  viability, T/C: 27%
[22]
  viability, T/C: 24.2%
[23]
  viability, T/C: 22.6%
[24]
  viability, T/C: 19.5%
[25]
  viability, T/C: 40.3%
[26]
  viability, T/C: 34.5%
[27]
  viability, T/C: 31.5%
[28]
  viability, T/C: 27.2%
[29]
  viability, T/C: 20.2%
[30]
  viability, T/C: 20.3%
[31]
  viability, T/C: 0.13%
[32]
  viability, T/C: 0.16%
[33]
  viability, T/C: 2.37%
[34]
  viability, T/C: 0.14%
[35]
  viability, T/C: 0.16%
[36]
  viability, T/C: 0.17%

## CC(C)(O)C1CCC(Nc2ccc3ncc(-c4cccc(C(F)(F)F)c4)n3n2)CC1 (stereo unspecified) + Cc1cnc(CNC(=O)c2c(=O)c3ccc(N4CCCN(C)CC4)nc3n3c2sc2ccccc23)cn1
Second compound 0.0316 µM
  IC50: 1730 nM
Second compound 0.1 µM
  IC50: 1550 nM
Second compound 0.316 µM
  IC50: 1630 nM
Second compound 1 µM
  IC50: 1740 nM
Second compound 3.16 µM
  IC50: 1360 nM
Second compound 10 µM
  IC50: < 31.6 nM
[1]
  viability, T/C: 108%
[2]
  viability, T/C: 89.3%
[3]
  viability, T/C: 96.5%
[4]
  viability, T/C: 75%
[5]
  viability, T/C: 21.5%
[6]
  viability, T/C: 23.8%
[7]
  viability, T/C: 83.3%
[8]
  viability, T/C: 83.8%
[9]
  viability, T/C: 85.4%
[10]
  viability, T/C: 65.4%
[11]
  viability, T/C: 22%
[12]
  viability, T/C: 27.6%
[13]
  viability, T/C: 82.8%
[14]
  viability, T/C: 69.2%
[15]
  viability, T/C: 76.2%
[16]
  viability, T/C: 64.3%
[17]
  viability, T/C: 28.9%
[18]
  viability, T/C: 32.1%
[19]
  viability, T/C: 76.4%
[20]
  viability, T/C: 65.6%
[21]
  viability, T/C: 65.1%
[22]
  viability, T/C: 66.5%
[23]
  viability, T/C: 31.9%
[24]
  viability, T/C: 32.5%
[25]
  viability, T/C: 66.9%
[26]
  viability, T/C: 65.2%
[27]
  viability, T/C: 63.9%
[28]
  viability, T/C: 59.8%
[29]
  viability, T/C: 21.3%
[30]
  viability, T/C: 25.9%
[31]
  viability, T/C: 0.3%
[32]
  viability, T/C: 17.6%
[33]
  viability, T/C: 49%
[34]
  viability, T/C: 0.58%
[35]
  viability, T/C: 0.43%
[36]
  viability, T/C: 0.23%
